One data set concerns anemic baboon. Briefly: In vivo reticulocyte proliferation, globin expression and blood counts in anemic (phlebotomized) baboons. The method, boiled down:
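Juvenile female baboons kept at 7.0–7.5 g/dl haemoglobin by daily phlebotomy got compounds sequentially, with wash-out until reticulocytes returned to baseline; each animal served as its own control. F-reticulocytes were measured by dual-antibody FACS, and γ/(γ+β) globin synthesis by ³H-leucine labelling and column chromatography. Blood counts were taken, unadjusted for phlebotomy.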

The test system of data set [1] is γ-globin promoter fragment containing FRE-γ1. Briefly: Gel mobility shift assay with FRE-γ1 promoter fragment. The arrangement: species or system human.
Data set [2] relates to γ-globin promoter (-61 construct, K562 cells). The format is cell-based, human. The source says:
Functional assay underscores the important role of FRE-γ1 in γ-globin gene expression in K562 cells. To ascertain whether the FRE elements of the γ-globin promoter that were identified by in vivo footprinting were indeed involved in arginine butyrate inducibility for γ-globin gene expression, a series of 5' deletion constructs of the γ-globin promoter, extending from -256 to -61, were constructed and linked them to the NEO gene. Activity of the NEO gene of these constructs, in response to arginine butyrate treatment, was examined by transfecting these reporters into K562 cells. In K562 cells, a construct driven by 256 bp of promoter was able to direct NEO activity expression, resulting in colony formation. […] Deletion to position -61 reduced promoter activity to 33-40% of the activity seen with the -256 bp construct.

A further data set has as its system fetal globin production. To be noted: cited from earlier work.
Another data set deals with γ-globin mRNA. The conditions noted are these: patients with globin disorders; cited from earlier work.
Data set [3] has as its system proximal promoter of the gamma globin gene (K562 cells). Briefly: Gamma globin promoter-neomycin transfection (61 bp proximal promoter), G418-resistant colonies. The format is cell-based, human. On the procedure:
Gamma globin promoter-neomycin transfection experiments were performed to determine if compounds act by inducing an increase in activity from the proximal promoter of the gamma globin gene. Constructs containing 61 bp of the proximal gamma globin promoter were linked to the reporter gene for neomycin phosphotransferase (NEO) and transfected into permissive K562 cells by electroporation. After 18 hours, transfected cells were passed at 10^3 cells per well into RPMI media containing G418 (neomycin), which kills all mammalian cells unless the gene for NEO is expressed. Phenoxyacetic acid and thiophenoxyacetic acid were added to some of the cells plated into the RPMI/G418 media at concentrations of 1 mM. Cultures were incubated for 8 weeks with media changes performed as needed. Colonies which survived and grew in the presence of G418 were scored and the number of such colonies was compared to those generated when the cells were plated into G418 media without the test compounds. […] There was a greater than 6-fold (>600%) increase in proportions of colonies surviving the presence of phenoxyacetic acid (6/24 wells) and a three-fold (300%) increase in survival in the presence of thiophenoxyacetic acid (3/24 wells).

Data set [4] has as its system hemoglobin polymerization. To be noted: artificially deoxygenated blood; cited from earlier work.
Where [5] appears, read: erythroblast nuclear extracts of thalassemic patients (FIG. 17).
[6] abbreviates: Homo sapiens, K562, 1344 h, read-out: increase in proportions of colonies surviving.
Setting [7] is: 1,000 to 1,500 mg/kg/day i.v., 4 days.

Turning to `CCCC(=O)O` [AB, arginine butyrate], in the data set with anemic baboon (1,000 mg/kg for 5 days), the response to treatment entry was “had not responded”. The response to treatment result with anemic baboon (2,000 mg/kg for 3 days) is “had not responded”. Further, in data set [1] (setting [5]), the “new binding activity (activator)” value is listed as “a new binding activity appeared” and the “other binding activity (repressor)” value is reported as “disappeared”. Also, the “activator and repressor bands in non-responder” value in data set [1] (patient with sickle cell anemia who did not respond) was “no increase in the intensity of the activator band or loss of the repressor band”. For the same compound, in data set [2], the “induction of construct activity” value is recorded as 2.5-4 fold. In the data set with fetal globin production, the “stimulation of fetal globin production” value is on record as “effective in stimulating fetal globin production”. Also, in the data set with γ-globin mRNA, the “levels of γ-globin mRNA” value is reported as “increase in response to butyrate treatment”.
As to `O=C(O)COc1ccccc1` [PAA, Phenoxyacetic acid], the colonies surviving in data set [3] (1 mM, 8 weeks in G418, none of 24 wells without compound) was 6/24. For the same compound, in data set [3] (setting [6]), the activation at 1000 µM is more than 600% and the fold induction at 1000 µM is more than 6. Besides, the “duration of effect after drug was discontinued” value in the data set on anemic baboon (1,500 mg/kg infused daily, 5 days) was “maintained itself for two days after drug was discontinued and slowly declined thereafter”. The compound also returned a Total hemoglobin in the data set on anemic baboon (1,500 mg/kg infused daily, 5 days (FIG. 7), from 6.8) of 7.6 grams/dl. Moreover, the reticulocytes in the data set on anemic baboon (1,500 mg/kg infused daily, 5 days, from 1.9%) is recorded as 9.2 % of all red blood cells. Also, in the data set on anemic baboon (1,500 mg/kg infused daily, 5 days, from 6.9), the “white blood cell count” value is on record as 9.5 10^3 cells/μl. For the same compound, the “packed red blood cell volume” value in the data set with anemic baboon (1,500 mg/kg infused daily, 5 days, from 22%) came to 25.4%. In the data set on anemic baboon (500, 1,000, 1,500 mg/kg infused, after 3 days (FIG. 9), from 12%), this compound showed a Fetal reticulocytes of 27%. For the same compound, in the data set with anemic baboon (setting [7]), the “Fetal reticulocytes, increase above baseline” value worked out at 800%; the “Fetal reticulocytes, increase above baseline (fold)” value is “eight-fold”; the “increase in output of fetal globin production over basal levels” value is given as 4,000%. This compound showed a Fetal reticulocytes with anemic baboon (1,000 to 1,500 mg/kg/day i.v., 4 days, another juvenile baboon, from 2%) of 16%. For the same compound, the “Fetal globin protein synthesis” value with anemic baboon (1,000 to 1,500 mg/kg/day i.v., 4 days, from 0%) amounted to 5%. Further, the inhibition of polymerization result in data set [4] was “inhibit polymerization”.

(Values after patent publication US6011000A, “Compositions for the treatment of blood disorders” (priority 1995, dated 2000).)
